A short description of data set [1]: Effect of composition of food on bioavailability of Drug A in dog. The class given is in vivo. As to conditions: dogs; for bioavailability: dog, plasma, po. Here is the method:
A solution in which 5 g of starch dispersed in 40 ml of water, 40 ml of egg albumin, and a solution in which 5 g of Gelucire® (44/14) dispersed in 40 ml of water, respectively, were fed to two dogs […] before administration of Drug A. These dogs (8–11 kg, Covance Research Product corporation, MI, U.S.A) were bred in a standard laboratory cage, adjusted for a temperature (22±3° C.) and humidity (50±20%), with feed and water available ad libitum. The dogs were fasted for 18–20 hours prior to this experiment. The test group for ascertaining the effect of foods was provided with foods 1 hour before administration of a drug, and the drug was administered after ingestion of foods. At a previously fixed time after administration, 500 μl of blood was gathered from the cephalic vein using the heparinized syringe, and the blood plasma was separated by a centrifuge, and then the plasma concentration of the drug was measured by HPLC analysis.
A Shiseido Capcell-Pak C18 reverse phase column was used for the drug-detection, employing a Shimadzu HPLC system (Class-LC10A system control software, CBM-10A communication bus module, two LC-10AD pumps, SIL-10AXL autoinjector with sample cooler, SPD-10AV ultraviolet detector). The mobile phase was acetonitrile : 0.1% trifluoroacetic acid /5 mM sodium dodecyl sulfate=47 : 53 and the flow rate was 1 ml/min. Data, obtained after oral administration, was expressed in a graph of drug concentration versus time, and applied to the non-compartment model using Win-Nonlin program (Scientific Consultion Corporation, NC, U.S.A.), whereby pharmacokinetic parameters such as a half-life (t1/2), maximum concentration (Cmax), time of the maximum concentration (Tmax), AUCinf, AUClast, and bioavailability (BA) were calculated. AUC was obtained by applying the trapezoidal rule-extrapolation method, and BA was calculated by using the formula (AUCPO×DoseIV)/(AUCIV×DosePO). The result of the experiment is disclosed in FIG. 1 and TABLE 2.

Data set [2] concerns the target T1, Trypsin (Bos taurus, UniProt P00760).
T1 construct: gene PRSS1
T1 sequence (P00760 24-246): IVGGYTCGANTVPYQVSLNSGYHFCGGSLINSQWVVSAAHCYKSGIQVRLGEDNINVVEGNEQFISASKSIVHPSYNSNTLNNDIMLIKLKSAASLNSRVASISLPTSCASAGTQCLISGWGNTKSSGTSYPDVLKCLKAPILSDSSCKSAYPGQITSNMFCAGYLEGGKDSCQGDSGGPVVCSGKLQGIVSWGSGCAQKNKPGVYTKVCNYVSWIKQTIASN
As to the kind of experiment: Measurement of activities of Drug A and its prodrugs to trypsin (chromogenic substrate, Ki). Type of data set: biochemical. The conditions noted are these: tris buffer pH 7.8, N-benzoyl-Val-Gly-Arg-p-nitroanilide substrate, room temperature; read-out: Trypsin inhibition constant. Here is the method:
140 μl of 0.1 M tris buffer solution (pH 7.8) containing 150 mM NaCl and 0.1% PEG 8000 (PolyEthylene Glycol, Molecular Weight: about 8,000) was pipetted into a microplate. A substrate solution was prepared by dissolving N-benzoyl-Val-Gly-Arg-p-nitroanilide hydro-chloride in DMSO to a concentration of 10 mM, and then diluting the resultant with the above buffer solution to a concentration of 0.5 mM. 20 μl of 0.5 mM substrate solution obtained thus was added to the microplate. An inhibitor solution was prepared by dissolving the inhibitor compound according to the present invention in DMSO to make the concentration of 10 mM, and then diluting the resultant with the above buffer solution to make the concentrations of 100000 nM, 10000 nM, 1000 nM, 100 nM, 10 nM, 1 nM, 0.1 nM, 0.01 nM and 0 nM, respectively. 20 μl of each inhibitor solution was adjusted to whole volume of 180 μl and then added to the microplate.
Trypsin which had been dissolved in 0.1 N HCl solution was added to the above tris buffer, just before the experiment, to make the concentration of 1 μg/ml, and 20 μl of solution obtained thus was added to the microplate containing the reaction solution at the room temperature. The amount of para-nitroaniline produced for 10 minutes after addition of enzymes was monitored by the light. The absorbance was plotted against the reaction time. Such graphs were obtained by performing the above experiment on the various concentrations of inhibitor.
Activities of Drug A and several prodrugs to trypsin were measured by determining the dissociation constant Ki, using the following formula according to the method described in Methods in Enzymology (V.80 p341–361; Biochemistry 27 p2144–2151,1988) Ki=[E]·[I]/[EI] • [E]: concentration of enzyme not bound to inhibitor • [I]: concentration of inhibitor not bound to enzyme • [EI]: concentration of binding product of enzyme and inhibitor
Such dissociation constant can be obtained by reacting with para-nitroanilide, which is chromogenic upon hydrolysis by the action of trypsin, and then measuring the extent of chromogenicity with time by spectroscopy.
The initial velocity, Vi, was obtained from the best-fit slope for the first 30 seconds after the reaction start time for each plot, and then a graph of the concentration of inhibitor versus the inverse of the initial velocity (1/Vi) was constructed. Thereafter, the linear function, which satisfies the graph, was calculated, and then Ki was calculated from the x-intercept of the above function using the enzymatic reaction formula. Km used in this calculation was obtained by changing the concentration of substrate at the constant enzyme concentration of […].

The conditions of data set [3]: cited from earlier work.
The conditions of data set [4]: dog, cited from earlier work.
Another data set addresses thrombin (Homo sapiens, UniProt P00734). The conditions noted are these: cited from earlier work.
In data set [5] the target is T1, Trypsin. The conditions noted are these: cited from earlier work.
The conditions of data set [6]: rats, oral; cited from earlier work.
The conditions of data set [7]: human subjects, oral; cited from earlier work.

Molecules are shown by their SMILES. Structures can show the parent of a compound that is named as a salt. Where two headings read alike, the source gives them in different places.

As to `N=C(N)c1ccc(CNC(=O)[C@@H]2CCCN2C(=O)[C@H](NCC(=O)O)C(c2ccccc2)c2ccccc2)s1` [Drug A, (2S)-N-{5-[amino(imino)methyl]-2-thienyl}methyl-1-{(2R)-2-[(carboxylmethyl)amino]-3,3-diphenylpropanol}-2-pyrrolidincarboxamide], the bioavailability is 43% in data set [1] (in fasting state); 20% in data set [1] (oral, after intake of Gelucire (lipid)); 13% in data set [1] (oral, after intake of egg albumin); 41% in data set [1] (oral, after intake of starch). In addition, the “bioavailability after ingestion of foods” value in data set [1] (after ingestion of foods) was “decreased markedly”. In addition, the Ki on Trypsin [2] is 0.3 nM.
Regarding `CC(C)(C)NC(=O)[C@@H]1CN(Cc2cccnc2)CCN1C[C@@H](O)C[C@@H](Cc1ccccc1)C(=O)N[C@H]1c2ccccc2C[C@H]1O` [Indinavir, [1(1S,2R), 5(S)]-2,3,5-trideoxy-N-(2,3-dihydro-2-hydroxy-1H-inden-1-yl)-5-[2-[[(1,1-dimethylethylaminocarbonyl)-4-(3-pyridinylmethyl)-1-piperazinyl]-2-(phenylmethyl)-D-erytho-pentonamide sulfate (1:1) salt], in data set [3], the “absorption rate when administered together with foods” value is reported as “absorption rate decreases”.
With `CCOC(=O)CN[C@@H](C(=O)N1CCC[C@H]1C(=O)NCc1ccc(/C(N)=N/C(=O)OCC(C)C)s1)C(c1ccccc1)c1ccccc1` [Prodrug 1], the Ki on Trypsin [2] amounted to 673 nM.
Same read-out and setting: the same measure for `CCOC(=O)CN[C@@H](C(=O)N1CCC[C@H]1C(=O)NCc1ccc(/C(N)=N/OC(C)=O)s1)C(c1ccccc1)c1ccccc1` [Prodrug 2]: 21300 nM; for `CCOC(=O)CN[C@@H](C(=O)N1CCC[C@H]1C(=O)NCc1ccc(/C(N)=N/O)s1)C(c1ccccc1)c1ccccc1` [Prodrug 3]: 5490 nM; for `CCOC(=O)CN[C@@H](C(=O)N1CCC[C@H]1C(=O)NCc1ccc(/C(N)=N/C(=O)OCC2CCCCC2)s1)C(c1ccccc1)c1ccccc1` [Prodrug 4]: 21000 nM.
As a reminder, the IC50 is the concentration that inhibits the measured activity by half. In the case of `CC(=O)N[C@H](Cc1ccccc1)C(=O)N(CC(=O)N[C@@H](CCCN=C(N)N)B(O)O)C1CCCC1` [Prodrug S-18326, Ac-D-Phe-N-cyclopentylglycine-boroArg-OH], the bioavailability in data set [4] (after meals) is 6%; in data set [4] (fasting state) it was 27%. The IC50 on thrombin is 3.6 nM; on Trypsin [5], 20 nM.
Turning to `NCCCC[C@H](NC(=O)C1(C(=O)NCCc2ccccc2)CCCC1)B(O)O` [Prodrug S-31922, 5-amino-1-R-(1phenethyl-carbamoyl-cyclopentanecaraboxamide) pentyl boronic acid], the values for the bioavailability in data set [4] (after meals) and in data set [4] (fasting state) were 22% and 36%, respectively. In addition, the concentration for half-maximal inhibition (IC50) is 43 nM at thrombin and 340 nM at Trypsin [5].
On to `N=C(N)NCCCC(C=O)NC(=O)C1CCCN1C(=O)C1NCCC2CCCCC21` (stereo not drawn) [R-Piq-Pro-Arg-H], for which, in data set [6], the “bioavailability after administration of foods” value was “decreases remarkably”. Also, the “bioavailability after intake of foods” value in data set [7] is on record as “decreases remarkably”.

(Values after US7097967B2, “Method of predicting drug-food interaction” (LG Life Sciences Ltd., priority 2002, dated 2006).)
